Legend:
[1] = system: molecular markers of autophagy; test: Western blot of autophagy markers, lentiviral α-Synuclein mice; assay type: in vivo, mouse; conditions: Nilotinib 10 mg/kg IP daily 3 weeks
Source text: (§1) Rabbit polyclonal (1:1000) tubulin (Thermo Scientific) was used.

[2] = system: SN Tyrosine hydroxylase (TH) neurons; test: TH neuron stereology and electron microscopy of SN, lentiviral α-Synuclein mice; assay type: in vivo, mouse
Method: Animals were deeply anesthetized with a mixture of Xylazine and Ketamine (1:8), washed with 1× saline for 1 min and then perfused with 4% paraformaldehyde (PFA) for 15-20 min. Brains were quickly dissected out and immediately stored in 4% PFA for 24 h at […], and then transferred to 30% sucrose at […] for 48 h. Tyrosine Hydroxylase (TH) was probed (1:100) with rabbit polyclonal (AB152) antibody (Millipore) and human α-Synuclein was probed (1:100) with mouse monoclonal antibodies (Thermo Scientific) and DAB counterstained.
These were applied by a blinded investigator using unbiased stereology analysis (Stereologer, Systems Planning and Analysis, Chester, Md.) to determine the total positive cell counts in 20 cortical fields on at least 10 brain sections (˜400 positive cells per animal) from each animal.
Brain tissues are fixed in (1:4, v:v) 4% PFA-picric acid solution and […] overnight, then washed 3× in 0.1 M cacodylate buffer and osmicated in 1% osmium tetroxide/1.5% potassium ferrocyanide for 3 h, followed by another 3× wash in distilled water. […] Blocks are sectioned on a Leica ultracut microtome at 95 nm, picked up onto […] formvar-coated copper grids and analyzed using a Philips Technai Spirit transmission EM. […]

[3] = system: dopamine and homovanillic acid (HVA) levels; test: Dopamine and HVA ELISA, lentiviral α-Synuclein mice; assay type: in vivo, mouse; conditions: 10 mg/kg Nilotinib or 5 mg/Kg Bosutinib
Method: Total brain or mesencephalon were collected and fresh 50 μl (1 μg/μl) brain lysates (in STEN buffer) were detected with 50 μl primary antibody (1 h) and 100 μl anti-rabbit secondary antibody (30 min) at RT according to manufacturer's protocols (Abnova, Cat # BOLD01090J00011) for DA and (Eagle Biosciences, Cat # HVA34-K01) for HVA.

[4] = system: molecular markers of autophagy; test: Western blot of autophagy markers, A53T mice; assay type: in vivo, mouse; conditions: daily IP Nilotinib 3 weeks
Source text: as §1

Tg-APP mice = test: Novel object recognition, Tg-APP mice; assay type: in vivo, mouse; conditions: Tg-APP+Nilotinib
Method: Mice were placed individually in a 22×32×30 cm testing chamber for a 5 min habituation interval and returned to their home cages. Thirty minutes later mice were placed in the testing chamber for 10 min with two identical objects (acquisition session), then returned to their home cages and […] placed back in the testing chamber in the presence with one of the original objects and one novel object of the same size but of a different color and shape (recognition session). Sessions were video recorded. Time spent exploring the objects were scored by blind observer. The recognition index was calculated as (time exploring one of the objects/time exploring both objects)×100 for acquisition session, and (time exploring new object/time exploring both familiar and novel objects)×100 for the recognition session. Statistical calculations to estimate differences between sessions were performed with a pairwise t-test.
These experiments were repeated in 1 year old Tg-APP mice and age-matched control (C57BL/6).

[5] = system: human Tau, Aβ1-42, α-synuclein; test: M17 cells transfected with Tau cDNA: Tau, Aβ1-42, α-synuclein; assay type: cell-based
Method: Cell culture experiments are referenced below and explained in Burns et al. (Human Molecular Genetics. 2009) and Rebeck et al. (J. Biol. Chem. 2010, 285:7440-7446). Additional details are provided in the brief description of the figures.
In other experiments, M17 cells transfected with Tau cDNA were treated with Nilobinib and Tubacin (an HDAC6 inhibitor).

[6] = system: autophagic vacuoles and lysosomes; test: Subcellular fractionation and ELISA, lentiviral Tau±Aβ1-42 mice; assay type: in vivo, mouse
Method: Brain tissues were fractionated to isolate AVs and human specific ELISA was performed to determine Aβ1-42 contents. […] It was also observed that autophagic clearance is parkin-dependent.
Brain tissues were fractionated to isolate AVs and mouse specific ELISA was performed to determine protein contents.
Brain tissues were fractionated to isolate AVs and human specific ELISA was performed to determine protein contents.
0.5 g of Frozen human or animal brains were homogenized at low speed (Cole-Palmer homogenizer, LabGen 7, 115 Vac) in 1×STEN buffer and centrifuged at 1,000 g for 10 minutes to isolate the supernatant from the pellet. The pellet was re-suspended in 1×STEN buffer and centrifuged once to increase the recovery of lysosomes. The pooled supernatants were then centrifuged at 100,000 rpm for 1 hour at 4° C. to extract the pellet containing autophagic vacuoles (AVs) and lysosomes. The pellet was then re-suspended in 10 ml (0.33 g/ml) 50% Metrizamide and 10 ml in cellulose nitrate tubes. A discontinuous Metrizamide gradient was constructed in layers from bottom to top as follows: 6 ml of pellet suspension, 10 ml of 26%; 5 ml of 24%; 5 ml of 20%; and 5 ml of 10% Metrizamide (Marzella et al., 1982). After centrifugation at 10,000 rpm for 1 hour at 4° C., the fraction floating on the 10% layer (Lysosome) and the fractions banding at the 24%/20% (AV 20) and the 20%/10% (AV10) Metrizamide inter-phases were collected by a syringe and examined.
Animal brains were homogenized at low speed (Cole-Palmer homogenizer, LabGen 7, 115 Vac) in 1×STEN buffer and centrifuged at 1,000 g for 10 minutes to isolate the supernatant from the pellet. The pellet was re-suspended in 1×STEN buffer and centrifuged once to increase the recovery of lysosomes. The pooled supernatants were then centrifuged at 100.000 rpm for 1 hour at […] to extract the pellet containing autophagic vacuoles (AVs) and lysosomes. The pellet was then re-suspended in 10 ml (0.33 g/ml) 50% Metrizamide and 10 ml in cellulose nitrate tubes. […]

Cc1cn(-c2cc(NC(=O)c3ccc(C)c(Nc4nccc(-c5cccnc5)n4)c3)cc(C(F)(F)F)c2)cn1 [Nilotinib]
decrease in LC3-II compared to LC3-I [1]: 39% | decrease in LC3-II compared to MAP-2 [1]: 41% | decrease in P62 [1]: 69% | increase in Atg-5 compared to actin [1]: 43% | increase in Atg-12 compared to actin [1]: 58% | increase in beclin-1 compared to actin [1]: 62% | TH+ neurons (by stereology) ([2]; lentiviral α-Synuclein mice + Nilotinib): 82 % of LacZ level | autophagic vacuoles in SN neurons (transmission electron microscopy) ([2]; lentiviral α-Synuclein mice, Nilotinib treatment): appearance of larger AVs | α-synuclein induced loss of dopamine and HVA levels (ELISA) [3]: reversed these effects | LC3-II level [4]: completely disappeared | increase in Atg-5 compared to DMSO [4]: 29% | increase in beclin-1 compared to DMSO [4]: 69% | better performance at finding new objects than DMSO mice (Tg-APP mice): 31% | human Aβ1-42 [5]: decrease | human Tau [5]: decrease | α-synuclein [5]: decrease | autophagic clearance of p-Tau ser 396, human specific ELISA ([6]; lentiviral Tau±Aβ1-42 mice, 10 mg/kg Nilotinib or 5 mg/Kg Bosutinib daily 3 weeks): enhances autophagic clearance | autophagic clearance of Aβ1-42 (deposition in AV-20 and lysosome) ([6]; lentiviral Tau±Aβ1-42 mice, IP 10 mg/kg Nilotinib daily 3 weeks): enhances autophagic clearance | autophagic clearance of p-Tau ser 396, mouse specific ELISA ([6]; lentiviral human Tau±Aβ1-42 mice, IP 10 mg/kg Nilotinib daily 3 weeks): enhances autophagic clearance
